pEC50: −log10 of the molar value.
The compounds below were run on hypoxia-induced VEGF production in HeLa cells (assay: cells). Conditions: Homo sapiens, HeLa.
Type: cell-based, human

SMILES | pEC50
CCOC(=O)N1CCc2c([nH]c3ccc(Cl)cc23)C1c1ccc(OCC(O)CO)cc1 (stereo not drawn) [Compound 1000] | 7.40 to 8.10
CC#CCOC(=O)N1CCc2c([nH]c3ccc(Cl)cc23)C1c1ccc(OCC(O)CN)cc1 (stereo not drawn) [Compound 1002] | 6.70 to 7.40
CCOC(=O)N1CCc2c([nH]c3ccc(Cl)cc23)C1c1ccc(OCC(=O)N2CCN(CCOC)CC2)cc1 (stereo not drawn) [Compound 1003] | 7.40 to 8.10
CCOC(=O)N1CCc2c([nH]c3ccc(Cl)cc23)C1c1ccc(OCC(=O)NCCN2CCOCC2)cc1 (stereo not drawn) [Compound 1004] | 7.40 to 8.10
COc1ccc(OC(=O)N2CCc3c([nH]c4ccc(Cl)cc34)C2c2ccc(OCCC3CCCN3C)cc2)cc1 (stereo not drawn) [Compound 1005] | 6.00 to 6.70
CCOC(=O)N1CCc2c([nH]c3ccc(Cl)cc23)C1c1ccc(OCCC2CCCN2C)cc1 (stereo not drawn) [Compound 1006] | 6.70 to 7.40
COC(=O)N1CCc2c([nH]c3ccc(Cl)cc23)C1c1ccc(OCCC2CCCN2C)cc1 (stereo not drawn) [Compound 1007] | 6.70 to 7.40
CN1CCCC1CCOc1ccc(C2c3[nH]c4ccc(Cl)cc4c3CCN2C(=O)Oc2ccc(F)cc2)cc1 (stereo not drawn) [Compound 1008] | 6.70 to 7.40
COC(=O)N1CCc2c([nH]c3ccc(Cl)cc23)C1c1ccc(OCC2CCCCN2C)cc1 (stereo not drawn) [Compound 1010] | 6.70 to 7.40
CCOC(=O)N1CCc2c([nH]c3ccc(Cl)cc23)C1c1ccc(OCC(=O)N2CCOCC2)cc1 (stereo not drawn) [Compound 1012] | 6.70 to 7.40
CCOC(=O)N1CCc2c([nH]c3ccc(Cl)cc23)C1c1ccc(OCC(=O)NCCO)cc1 (stereo not drawn) [Compound 1013] | 7.40 to 8.10
CCOC(=O)N1CCc2c([nH]c3ccc(Cl)cc23)C1c1ccc(OCC(=O)N2CCN(CCO)CC2)cc1 (stereo not drawn) [Compound 1014] | 6.70 to 7.40
CCOC(=O)N1CCc2c([nH]c3ccc(Cl)cc23)C1c1ccc(OCC(=O)NCCOC)cc1 (stereo not drawn) [Compound 1015] | 6.70 to 7.40
O=C(Oc1ccc(Cl)cc1)N1CCc2c([nH]c3ccc(Cl)cc23)C1c1ccc(OCCCn2nccn2)cc1 (stereo not drawn) [Compound 1016] | < 6.00
O=C(Oc1ccc(F)cc1)N1CCc2c([nH]c3ccc(Cl)cc23)C1c1ccc(OCCCn2nccn2)cc1 (stereo not drawn) [Compound 1017] | > 8.10
CC#CCOC(=O)N1CCc2c([nH]c3ccc(Cl)cc23)C1c1ccc(OCC(O)CO)cc1 (stereo not drawn) [Compound 1018] | 7.40 to 8.10
C#CCCOC(=O)N1CCc2c([nH]c3ccc(Cl)cc23)C1c1ccc(OCC(O)CO)cc1 (stereo not drawn) [Compound 1019] | 7.40 to 8.10
C#CCOC(=O)N1CCc2c([nH]c3ccc(Cl)cc23)C1c1ccc(OCC(O)CO)cc1 (stereo not drawn) [Compound 1020] | 7.40 to 8.10
COCCN1CCN(C(=O)COc2ccc(C3c4[nH]c5ccc(Cl)cc5c4CCN3C(=O)Oc3ccc(F)cc3)cc2)CC1 (stereo not drawn) [Compound 1021] | 6.70 to 7.40
O=C(COc1ccc(C2c3[nH]c4ccc(Cl)cc4c3CCN2C(=O)Oc2ccc(F)cc2)cc1)NCCN1CCOCC1 (stereo not drawn) [Compound 1022] | 6.70 to 7.40
O=C(COc1ccc(C2c3[nH]c4ccc(Cl)cc4c3CCN2C(=O)Oc2ccc(F)cc2)cc1)N1CCOCC1 (stereo not drawn) [Compound 1023] | 7.40 to 8.10
CCN1CCN(C(=O)COc2ccc(C3c4[nH]c5ccc(Cl)cc5c4CCN3C(=O)Oc3ccc(F)cc3)cc2)CC1 (stereo not drawn) [Compound 1024] | 6.70 to 7.40
COCCN1CCN(C(=O)COc2ccc(C3c4[nH]c5ccc(Cl)cc5c4CCN3C(=O)Oc3ccc(OC)cc3)cc2)CC1 (stereo not drawn) [Compound 1025] | 6.70 to 7.40
COc1ccc(OC(=O)N2CCc3c([nH]c4ccc(Cl)cc34)C2c2ccc(OCC(=O)NCCN3CCOCC3)cc2)cc1 (stereo not drawn) [Compound 1026] | 7.40 to 8.10

SMILES | pEC50
CCN1CCN(C(=O)COc2ccc(C3c4[nH]c5ccc(Cl)cc5c4CCN3C(=O)Oc3ccc(OC)cc3)cc2)CC1 (stereo not drawn) [Compound 1028] | 6.70 to 7.40
COc1ccc(OC(=O)N2CCc3c([nH]c4ccc(Cl)cc34)C2c2ccc(OCC(=O)N3CCN(CCCN(C)C)CC3)cc2)cc1 (stereo not drawn) [Compound 1029] | < 6.00
COc1ccc(OC(=O)N2CCc3c([nH]c4ccc(Cl)cc34)C2c2ccc(OCCCN3CCOCC3)cc2)cc1 (stereo not drawn) [Compound 1030] | 7.40 to 8.10
COC(=O)N1CCc2c([nH]c3ccc(Cl)cc23)C1c1ccc(OCC2OCCO2)cc1 (stereo not drawn) [Compound 1032] | 7.40 to 8.10
CCOC(=O)N1CCc2c([nH]c3ccc(Cl)cc23)C1c1ccc(OCC2OCCO2)cc1 (stereo not drawn) [Compound 1033] | 7.40 to 8.10
CCCOC(=O)N1CCc2c([nH]c3ccc(Cl)cc23)C1c1ccc(OCC2OCCO2)cc1 (stereo not drawn) [Compound 1034] | > 8.10
CCCCOC(=O)N1CCc2c([nH]c3ccc(Cl)cc23)C1c1ccc(OCC2OCCO2)cc1 (stereo not drawn) [Compound 1035] | > 8.10
CC(C)COC(=O)N1CCc2c([nH]c3ccc(Cl)cc23)C1c1ccc(OCC2OCCO2)cc1 (stereo not drawn) [Compound 1037] | > 8.10
CC(C)(C)COC(=O)N1CCc2c([nH]c3ccc(Cl)cc23)C1c1ccc(OCC2OCCO2)cc1 (stereo not drawn) [Compound 1038] | > 8.10
O=C(OCCF)N1CCc2c([nH]c3ccc(Cl)cc23)C1c1ccc(OCC2OCCO2)cc1 (stereo not drawn) [Compound 1039] | > 8.10
O=C(OCCCl)N1CCc2c([nH]c3ccc(Cl)cc23)C1c1ccc(OCC2OCCO2)cc1 (stereo not drawn) [Compound 1040] | 7.40 to 8.10
O=C(OCCCCl)N1CCc2c([nH]c3ccc(Cl)cc23)C1c1ccc(OCC2OCCO2)cc1 (stereo not drawn) [Compound 1041] | 7.40 to 8.10
COCCOC(=O)N1CCc2c([nH]c3ccc(Cl)cc23)C1c1ccc(OCC2OCCO2)cc1 (stereo not drawn) [Compound 1042] | 7.40 to 8.10
C=COC(=O)N1CCc2c([nH]c3ccc(Cl)cc23)C1c1ccc(OCC2OCCO2)cc1 (stereo not drawn) [Compound 1043] | > 8.10
C=CCOC(=O)N1CCc2c([nH]c3ccc(Cl)cc23)C1c1ccc(OCC2OCCO2)cc1 (stereo not drawn) [Compound 1044] | > 8.10
C=CCCOC(=O)N1CCc2c([nH]c3ccc(Cl)cc23)C1c1ccc(OCC2OCCO2)cc1 (stereo not drawn) [Compound 1045] | > 8.10
C=C(C)OC(=O)N1CCc2c([nH]c3ccc(Cl)cc23)C1c1ccc(OCC2OCCO2)cc1 (stereo not drawn) [Compound 1046] | 7.40 to 8.10
CC#CCOC(=O)N1CCc2c([nH]c3ccc(Cl)cc23)C1c1ccc(OCC2OCCO2)cc1 (stereo not drawn) [Compound 1047] | > 8.10
C#CCOC(=O)N1CCc2c([nH]c3ccc(Cl)cc23)C1c1ccc(OCC2OCCO2)cc1 (stereo not drawn) [Compound 1048] | > 8.10
C#CCCOC(=O)N1CCc2c([nH]c3ccc(Cl)cc23)C1c1ccc(OCC2OCCO2)cc1 (stereo not drawn) [Compound 1049] | > 8.10
O=C(Oc1ccc(Cl)cc1)N1CCc2c([nH]c3ccc(Cl)cc23)C1c1ccc(OCC2OCCO2)cc1 (stereo not drawn) [Compound 1053] | > 8.10
O=C(OCc1ccccc1)N1CCc2c([nH]c3ccc(Cl)cc23)C1c1ccc(OCC2OCCO2)cc1 (stereo not drawn) [Compound 1056] | > 8.10
O=C(OCc1ccccc1Cl)N1CCc2c([nH]c3ccc(Cl)cc23)C1c1ccc(OCC2OCCO2)cc1 (stereo not drawn) [Compound 1057] | > 8.10
O=C(OCc1ccccc1)N1CCc2c([nH]c3ccc(Cl)cc23)C1c1ccc(OCCCO)cc1 (stereo not drawn) [Compound 1059] | > 8.10

SMILES | pEC50
C=CCOC(=O)N1CCc2c([nH]c3ccc(Cl)cc23)C1c1ccc(OCCCO)cc1 (stereo not drawn) [Compound 1060] | > 8.10
CC(C)COC(=O)N1CCc2c([nH]c3ccc(Cl)cc23)C1c1ccc(OCCCO)cc1 (stereo not drawn) [Compound 1061] | > 8.10
O=C(COc1ccc(C2c3[nH]c4ccc(Cl)cc4c3CCN2C(=O)Oc2ccc(F)cc2)cc1)NCCO (stereo not drawn) [Compound 1063] | 7.40 to 8.10
O=C(COc1ccc(C2c3[nH]c4ccc(Cl)cc4c3CCN2C(=O)Oc2ccc(F)cc2)cc1)N1CCN(CCO)CC1 (stereo not drawn) [Compound 1064] | 7.40 to 8.10
O=C(Oc1ccc(Cl)cc1)N1CCc2c([nH]c3ccc(Cl)cc23)[C@@H]1c1ccc(OC[C@H](O)CN2CCOCC2)cc1 [Compound 1070] | > 8.10
O=C(Oc1ccc(Cl)cc1)N1CCc2c([nH]c3ccc(Cl)cc23)[C@@H]1c1ccc(OC[C@@H](O)CN2CCOCC2)cc1 [Compound 1071] | > 8.10
C=CCOC(=O)N1CCc2c([nH]c3ccc(Cl)cc23)C1c1ccc(OCCCN2CCN(C)CC2)cc1 (stereo not drawn) [Compound 1072] | > 8.10
CCOC(=O)N1CCc2c([nH]c3ccc(Cl)cc23)C1c1ccc(OCC(O)Cn2nccn2)cc1 (stereo not drawn) [Compound 1073] | > 8.10
CC(C)OC(=O)N1CCc2c([nH]c3ccc(Cl)cc23)C1c1ccc(OCCCO)cc1 (stereo not drawn) [Compound 1074] | > 8.10
O=C(Oc1ccccc1)N1CCc2c([nH]c3ccc(Cl)cc23)C1c1ccc(OCCCN2CCOCC2)cc1 (stereo not drawn) [Compound 1075] | 7.40 to 8.10
CN1CCN(CCCOc2ccc(C3c4[nH]c5ccc(Cl)cc5c4CCN3C(=O)Oc3ccccc3)cc2)CC1 (stereo not drawn) [Compound 1076] | 6.70 to 7.40
C=CCOC(=O)N1CCc2c([nH]c3ccc(Cl)cc23)C1c1ccc(OCCCN2CCOCC2)cc1 (stereo not drawn) [Compound 1079] | > 8.10
C=CCOC(=O)N1CCc2c([nH]c3ccc(Cl)cc23)C1c1ccc(OCCCn2ccnn2)cc1 (stereo not drawn) [Compound 1080] | > 8.10
C=CCOC(=O)N1CCc2c([nH]c3ccc(Cl)cc23)C1c1ccc(OCCCn2nccn2)cc1 (stereo not drawn) [Compound 1081] | > 8.10
COCCOC(=O)N1CCc2c([nH]c3ccc(Cl)cc23)C1c1ccc(OCCCn2ccnn2)cc1 (stereo not drawn) [Compound 1083] | 7.40 to 8.10
COCCOC(=O)N1CCc2c([nH]c3ccc(Cl)cc23)C1c1ccc(OCCCn2nccn2)cc1 (stereo not drawn) [Compound 1084] | 7.40 to 8.10
CCOC(=O)N1CCc2c([nH]c3ccc(Cl)cc23)C1c1ccc(OCC(O)CNC(=O)COC)cc1 (stereo not drawn) [Compound 1085] | > 8.10
COc1cc(C2c3[nH]c4ccc(Cl)cc4c3CCN2C(=O)Oc2ccc(Cl)cc2)ccc1OCCN1CCOCC1 (stereo not drawn) [Compound 1092] | 7.40 to 8.10
COc1cc(C2c3[nH]c4ccc(Cl)cc4c3CCN2C(=O)Oc2ccc(Cl)cc2)ccc1OCCCN1CCOCC1 (stereo not drawn) [Compound 1093] | 7.40 to 8.10
COc1cc(C2c3[nH]c4ccc(Cl)cc4c3CCN2C(=O)Oc2ccc(Cl)cc2)ccc1OCCCCN1CCOCC1 (stereo not drawn) [Compound 1094] | 7.40 to 8.10
COc1ccc(C2c3[nH]c4ccc(Cl)cc4c3CCN2C(=O)Oc2ccc(Cl)cc2)cc1OCCN1CCOCC1 (stereo not drawn) [Compound 1095] | 6.00 to 6.70
COc1ccc(C2c3[nH]c4ccc(Cl)cc4c3CCN2C(=O)Oc2ccc(Cl)cc2)cc1OCCCN1CCOCC1 (stereo not drawn) [Compound 1096] | 6.00 to 6.70
COc1ccc(C2c3[nH]c4ccc(Cl)cc4c3CCN2C(=O)Oc2ccc(Cl)cc2)cc1OCCCCN1CCOCC1 (stereo not drawn) [Compound 1097] | 6.70 to 7.40
O=C(Oc1ccc(Cl)cc1)N1CCc2c([nH]c3ccc(Cl)cc23)C1c1ccc(OCCCN2CCC(CO)C2)cc1 (stereo not drawn) [Compound 1098] | 7.40 to 8.10
